Data from paper PMC9896555, “Cyclic Acetals as Novel Long-Lasting Mosquito Repellents” (Journal of Agricultural and Food Chemistry, 2023).
Where “and” joins values, the source holds several entries; their conditions need not be identical. Identical values can stand only once. Entries after “also recorded” stand apart in the source; their conditions may differ. Like-named read-outs stand apart in the source and are kept apart here.

Columns and labels:
[1] = test system: Aedes albopictus; experiment: Effective dose / protection efficacy, human-bait technique; assay type: in vivo; details: for pest or weed control at 0.081 µg/cm2, 0.081 µg/cm2 / pest or weed control at 0.17 µg/cm2, 0.17 µg/cm2 / pest or weed control at 0.33 µg/cm2, 0.33 µg/cm2 / pest or weed control at 0.5 µg/cm2, 0.5 µg/cm2 / pest or weed control at 0.83 µg/cm2, 0.83 µg/cm2 / pest or weed control at 1.7 µg/cm2, 1.7 µg/cm2 / pest or weed control at 8.3 µg/cm2, 8.3 µg/cm2 / pest or weed control at 16.7 µg/cm2, 16.7 µg/cm2 / pest or weed control at 83.3 µg/cm2, 83.3 µg/cm2: Aedes albopictus, topical, read-out: Protection efficacy PE%
Protocol: The repellence of DEET, Icaridin (both supplied by Istituto Biochimico VEBI s.r.l.), acetals, and the synthesized hydroxyacetals was evaluated againstAedes albopictususing the human-bait technique (to simulate the condition of human skin on which repellents will be applied).[22]A. albopictuswas reared and tested at 26 ± 2 °C, ≥60 ± 10% relative humidity (RH), and at 14:10 h light/dark photoperiod, within Plexiglas cylindrical laboratory cages (35 cm diameter, 60 cm length) with one end closed by a net. During the tests, cages contained ≈150 nulliparous, 4–7 day-old, nonblood-fed females. For each compound to be tested, up to six volunteers participated in the trial.
The study was approved by the Regional Ethics Committee for Clinical Trials of Tuscany Region with the registered number 20383. Volunteers agreed to take part in the experiments following informed consent; only volunteers non-allergic to mosquito bites participated in the trials. On the day of the bioassay, they had no contact with lotions, perfumes, oils, or perfumed soaps. They wore latex surgical gloves, in which a dorsal square area of 30 cm^2 was cut open. Mosquito-exposed skin was treated with 50 μL of ethanol, as the negative hand control. The other hand was treated with 50 μL of the tested compounds in ethanol solution (dosages corresponding to 0.081, 0.17, 0.33, 0.5, 0.83, 1.7, 8.3, 16.7, and 83.3 μg/cm^2). Both hands were presented in the same test cage. The number of probing mosquitoes in a 3 min exposure period was recorded. During each test, the control and the treated hand were presented interchanged to verify the mosquitoes’ readiness to bite. Trials were considered valid only if at least 30 mosquitoes performed probing behavior on the control hand before each repellent dosage was tested. The protection efficacy (PE %) obtained from all replicates was calculated, according to the WHO guidelines[31] using this formula [drawing 1]
To evaluate the protection efficacy, volunteers applied increasing doses of the compounds to the skin on the back of their hands (30 cm^2, while the rest was covered with a rubber glove) and counted the number of mosquitoes attempting to bite; the solvent only was used on the control hand. The protection (percentage of repelled mosquitoes) was calculated as reported in the Material and Methods section.

[2] = test system: RAW 264.7; experiment: Immunogenicity on murine macrophages (nitric oxide release); assay type: cell-based; details: for immunogenicity (nitric oxide release / nitrite production), in words: RAW264.7, 82 μg/mL, 6 h
Protocol: Cells were cultured in DMEM, with 10% FBS, 1% L-glutamine (2 mM), and 1% penicillin–streptomycin 100 U/mL at 37 °C in an atmosphere containing 5% CO2. RAW264.7 were seeded (1 × 10^5 cells/well) and exposed to five derivatives or Icaridin, at 82 μg/mL or to LPS (1 μg/mL) as a positive control, for 3 and 6 h. After that, nitric oxide release was determined in the culture media as previously described.[32] Experiments were performed in triplicate.

[3] = test system: Aedes albopictus; experiment: Protection time at 0.17 mg/cm2, human-bait technique; assay type: in vivo; details: for pest or weed control at 0.17 mg/cm2, 0.17 mg/cm2: Aedes albopictus, topical, read-out: Protection time PE%; for Average PT >95% (% coefficient of variation) / Estimated 100% PT (complete protection time, mean±SE): at the dose of 0.17mg/cm2; for Estimated 100% PT (complete protection time, mean±SE): Kaplan–Meier estimate
Protocol: To evaluate the protection time of derivatives, the PE % was measured with 100 μL of a 5% ethanol solution, corresponding to 0.17 mg/cm^2 of exposed skin, under the same laboratory conditions. Mosquito-exposed skin was treated with 100 μL of ethanol, as the negative hand control. For each volunteer (up to 8), the test was performed every hour, up to 8 h from the application. The protection time of DEET and Icaridin was measured under the same conditions. Since these trials were run in parallel with those aimed to profile the cytotoxicity of the compounds (paragraph 2.6), we interrupted the experiments for those compounds showing to have higher cytotoxicity than Icaridin and DEET as soon as the results were available. For this reason, the number of volunteers differs among the compounds.
The average time until protection which was higher than 95% protection time was considered for each compound. Moreover, for the compounds tested on at least three volunteers, the complete (100%) protection time was also estimated (SPSS 28.01.0) using the Kaplan–Meier survivor function procedure.[22]

[4] = test system: HaCaT cells; experiment: Cytotoxicity on human keratinocytes (MTS); assay type: cell-based; details: 82 μg/mL, 24 h
Protocol: HaCaT cells were cultured in 5% CO2 at 37 °C in Dulbecco’s modified Eagle’s medium (DMEM), supplemented with 10% fetal bovine serum (FBS), 1% L-glutamine ([…]), and 1% penicillin–streptomycin (Thermo Fisher Scientific, Rodano, Milan, Italy). […] Experiments were performed in triplicate.

[5] = test system: Caco-2 monolayer; experiment: Transwell permeation test; assay type: in vitro ADME; details: 82 μg/mL apical, 3 h
Protocol: To evaluate the possibility of absorption after topical application, we tested the permeation through a Caco-2 monolayer for those compounds best performing in terms of protection time and cytotoxicity. The colorectal adenocarcinoma cell line Caco-2 was purchased from ATCC and cultured in DMEM with 20% FBS, L-glutamine (2 mM), and 1% penicillin–streptomycin 100 U/mL (Thermo Fisher Scientific, Rodano, Milan, Italy) in 5% CO2 at 37 °C.
For the permeation studies, Caco-2 cells, a model of epithelial cells, were seeded into 12-well PET Transwell plates (1.13 cm^2 growth surface area and pore size 0.4 μm, Greiner Bio-One, Milan, Italy) at a density of 2 × 10^5 cells/cm^2 and grown for 21 days to form a confluent monolayer. The integrity of the cellular barrier was then assessed using Lucifer Yellow (LY) permeability test, before the experiments.[33]
After washing, the monolayers were preincubated for 20 min at 37 °C with 0.5 and 1.5 mL of the incubation medium, HBSS/HEPES 25 mM in the apical and basolateral sides, respectively. […] At the end of the experiment, the layer integrity was re-evaluated. […]
One hundred microliters of the collected media was extracted in 100 μL of heptane by vortexing the vial for 2 min; 70 μL of this solution was recovered; and 1 μL was injected in a 7820 GC system-5977B MSD system and analyzed under the same conditions reported in paragraph 2.2. […]

With `CCC(C)OC(=O)N1CCCCC1CCO` (stereo not drawn) [Icaridin, reference compound] the pest or weed control at 0.081 µg/cm2, 0.081 µg/cm2 [1] was 42.4%, the pest or weed control at 0.17 µg/cm2, 0.17 µg/cm2 [1] was 53.7% and the pest or weed control at 0.33 µg/cm2, 0.33 µg/cm2 [1] was 61.8%. The pest or weed control at 0.5 µg/cm2, 0.5 µg/cm2 [1] was 77.8%, the pest or weed control at 0.83 µg/cm2, 0.83 µg/cm2 [1] was 69.3% and the pest or weed control at 1.7 µg/cm2, 1.7 µg/cm2 [1] was 99.6%. For the same molecule, the pest or weed control at 8.3 µg/cm2, 8.3 µg/cm2 [1] was 100%, the pest or weed control at 16.7 µg/cm2, 16.7 µg/cm2 [1] was 100% and the pest or weed control at 83.3 µg/cm2, 83.3 µg/cm2 [1] was 100%. The “100% PE” value ([1]; Table S1) was 8.3 µg/cm2, the “immunogenicity (nitric oxide release / nitrite production), in words” value [2] was “three-time increase in the nitrite production compared to the control treatment” and the “production of nitrite as compared to the positive control” value ([2]; RAW264.7, positive control LPS 1 μg/mL) was 40%. For the same molecule, the “Protection time PE%” value ([3]; 0.17mg/cm2, 0 min) was 100%, the pest or weed control at 0.17 mg/cm2, 0.17 mg/cm2 ([3]; 1 h) was 100% and the pest or weed control at 0.17 mg/cm2, 0.17 mg/cm2 ([3]; 2 h) was 100%. It also gave a pest or weed control at 0.17 mg/cm2, 0.17 mg/cm2 ([3]; 3 h) of 99.5%, a pest or weed control at 0.17 mg/cm2, 0.17 mg/cm2 ([3]; 4 h) of 99.5% and a pest or weed control at 0.17 mg/cm2, 0.17 mg/cm2 ([3]; 5 h) of 99.8%. The pest or weed control at 0.17 mg/cm2, 0.17 mg/cm2 ([3]; 6 h) was 98.7%, the pest or weed control at 0.17 mg/cm2, 0.17 mg/cm2 ([3]; 7 h) was 98.7% and the pest or weed control at 0.17 mg/cm2, 0.17 mg/cm2 ([3]; 8 h) was 97.6%. The “Average PT >95% (% coefficient of variation)” value [3] was 480 (2.2) min, the “Estimated 100% PT (complete protection time, mean±SE)” value [3] was 370 ± 52 min and the survival of keratocytes [4] was 91%.
In the case of `CC(C)CC1(CC(C)C)OCC(C)(CO)CO1` [17b], the pest or weed control at 0.081 µg/cm2, 0.081 µg/cm2 ([1]; 0.081 µg/cm2) is reported as 8.33%, the pest or weed control at 0.17 µg/cm2, 0.17 µg/cm2 ([1]; 0.17 µg/cm2) is reported as 27.8% and the pest or weed control at 0.33 µg/cm2, 0.33 µg/cm2 ([1]; 0.33 µg/cm2) is reported as 50.8%. The pest or weed control at 0.5 µg/cm2, 0.5 µg/cm2 ([1]; 0.5 µg/cm2) was 44.4%, the pest or weed control at 0.83 µg/cm2, 0.83 µg/cm2 ([1]; 0.83 µg/cm2) was 58.1% and the pest or weed control at 1.7 µg/cm2, 1.7 µg/cm2 ([1]; 1.7 µg/cm2) was 94.8%. For the same molecule, the pest or weed control at 8.3 µg/cm2, 8.3 µg/cm2 ([1]; 8.3 µg/cm2) was 100%, the pest or weed control at 16.7 µg/cm2, 16.7 µg/cm2 ([1]; 16.7 µg/cm2) was 100% and the pest or weed control at 83.3 µg/cm2, 83.3 µg/cm2 ([1]; 83.3 µg/cm2) was 100%. The “Protection efficacy (dose to obtain complete protection (100%) from bite attempts)” value ([1]; applied on skin of volunteers, 3 min exposure) was 8.3 μg/cm^2, the “immunogenicity (nitric oxide release / nitrite production), in words” value [2] was “did not exhibit immunogenicity; also recorded: indistinguishable from the negative control” and the pest or weed control at 0.17 mg/cm2, 0.17 mg/cm2 ([3]; 0.17mg/cm2, 1 h) was 100%. The pest or weed control at 0.17 mg/cm2, 0.17 mg/cm2 ([3]; 0.17mg/cm2, 2 h) was 98.7%, the pest or weed control at 0.17 mg/cm2, 0.17 mg/cm2 ([3]; 0.17mg/cm2, 3 h) was 99.1% and the pest or weed control at 0.17 mg/cm2, 0.17 mg/cm2 ([3]; 0.17mg/cm2, 4 h) was 100%. It also gave a pest or weed control at 0.17 mg/cm2, 0.17 mg/cm2 ([3]; 0.17mg/cm2, 5 h) of 96.8%, a pest or weed control at 0.17 mg/cm2, 0.17 mg/cm2 ([3]; 0.17mg/cm2, 6 h) of 93.6% and a pest or weed control at 0.17 mg/cm2, 0.17 mg/cm2 ([3]; 0.17mg/cm2, 7 h) of 95.6%. For the same molecule, the pest or weed control at 0.17 mg/cm2, 0.17 mg/cm2 ([3]; 0.17mg/cm2, 8 h) was 96.5%, the “Average PT >95% (% coefficient of variation)” value [3] was 480 (5.0) min and the “Estimated 100% PT (complete protection time, mean±SE)” value [3] was 300 ± 94 min. The “Protection time (95% protection)” value ([3]; dose of 0.17 mg/cm^2, tests ended after 8 h) was 8 h, the survival of keratocytes [4] was > 88% and 92% and the “permeability value lower compared to Icaridin” value [5] was 17%.
